In PubChem BioAssay AID488888 (Sanford-Burnham Center for Chemical Genomics, 2010):
The source made the active and inactive calls.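 Rule for the calls: active = mean EC50, the dose giving half of full activation, below a set limit (actives reach about 84 µM in these data); inactive = the rest.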

Target: Alkaline phosphatase, placental type (Homo sapiens) (UniProt P05187)
Test: PLAP enzyme activators, dose response, selectivity assay for human IAP activator project, biochemical, uHTS hits, luminescence (AID 488888)
Settings: purified PLAP, CDP-Star luminescence, 30 min

Sequence of Alkaline phosphatase, placental type (Homo sapiens) (P05187 whole entry, looked up): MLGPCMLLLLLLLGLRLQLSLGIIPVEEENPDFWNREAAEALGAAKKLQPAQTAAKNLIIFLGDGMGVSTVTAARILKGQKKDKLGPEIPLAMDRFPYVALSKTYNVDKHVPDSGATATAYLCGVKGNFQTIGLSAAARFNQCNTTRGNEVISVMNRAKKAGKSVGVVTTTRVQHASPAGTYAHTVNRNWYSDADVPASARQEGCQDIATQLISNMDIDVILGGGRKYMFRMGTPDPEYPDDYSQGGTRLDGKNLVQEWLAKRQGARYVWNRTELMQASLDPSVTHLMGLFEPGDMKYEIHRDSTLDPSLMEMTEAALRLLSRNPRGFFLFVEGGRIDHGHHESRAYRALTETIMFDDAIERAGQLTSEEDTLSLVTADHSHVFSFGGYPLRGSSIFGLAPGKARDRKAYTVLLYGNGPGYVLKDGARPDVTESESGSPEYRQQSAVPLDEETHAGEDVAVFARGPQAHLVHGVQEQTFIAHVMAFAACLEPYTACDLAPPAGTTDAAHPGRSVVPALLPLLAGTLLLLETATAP

## Cc1ccsc1C(=O)NNC(=S)NC1CCCCC1
  EC50: 14.3 µM

## c1ccc(-c2cccc(-c3ccccn3)n2)nc1
  EC50: 27.1 µM

## OC(c1nc2ccc(F)cc2[nH]1)C(O)c1nc2ccc(F)cc2[nH]1 (centres undefined)
  EC50: 10.5 µM

## Cc1ccc(NC(=O)NNC(=O)c2cc3ccccc3cc2O)cc1
  EC50: 15.3 µM

## COc1ccccc1CN1CCC(n2nccc2NC(=O)CCCc2ccccc2)CC1
  EC50: 69 µM

## CCn1c(C)nc2cc(C(=O)N/N=C/c3cccc(O)c3O)ccc21
  EC50: 10.9 µM

## COc1ccccc1CCNC(=O)C1CCN(c2nnc(C)c3c(C)n(-c4ccc(C)cc4)nc23)CC1
  EC50: 56 µM

## Cc1nc2c3ccccc3nc(NNC(=O)CCC(=O)N3CCCC(C)C3)n2n1 (centres undefined)
  EC50: 13.5 µM

## CC1C(=O)NN=C1C(=O)N/N=C\c1ccc(O)cc1O (centres undefined)
  EC50: 13.2 µM

## CCn1nc(C)c(CN2CCC(C(=O)Nc3cccc(-c4cccc(F)c4)c3)CC2)c1C
  EC50: 53.7 µM

## Cc1ccc(S(=O)(=O)NCCC(=O)NNC(=O)COc2ccc(Br)cc2)cc1C
  EC50: 16.7 µM

## O=C(O)c1ccccc1C(=O)Nc1cc(-c2ccccc2)[nH]n1
  EC50: > 100 µM (inactive)

## Cc1nc(S/C(=C/c2ccc(-c3ccc(Cl)cc3)o2)C(=O)O)n[nH]1
  EC50: 13.2 µM

## CCN(CC)c1ccc(/C=N/NC(=O)c2nnn(-c3nonc3N)c2C(C)C)c(O)c1
  EC50: 73.7 µM

## CC(C)CC(=O)NC(=S)NNC(=O)c1ccc(NC(=O)C2CCCCC2)cc1
  EC50: 61.6 µM

## Cc1nn(C)c(C(=O)NNC(=S)NCc2ccccc2)c1Cl
  EC50: 18.6 µM

## Cc1cccc(CC(Cc2nc3ccccc3[nH]2)c2nc3ccccc3[nH]2)c1 (centres undefined)
  EC50: 60.8 µM

## COc1ccc(C2=NN(C3=NN=C(N)Cc4ncnn43)C(O)(C(F)(F)F)C2)cc1 (centres undefined)
  EC50: 14.4 µM

## O=C(CCCCC(=O)NNC(=O)COc1ccccc1)NNC(=O)COc1ccccc1
  EC50: 12 µM

## Cc1cc(OCC(=O)Nc2ncn[nH]2)ccc1Cl
  EC50: 17 µM

## Cc1ccc(O)c(/C=N/NC(=O)c2[nH]ncc2Br)c1
  EC50: 75.5 µM

## Cc1cc(C)cc(CC(Cc2nc3ccccc3[nH]2)c2nc3ccccc3[nH]2)c1 (centres undefined)
  EC50: 82.7 µM

## C[C@@H](NC(=O)c1[nH]cnc1C(=O)Nc1ccon1)c1ccccc1
  EC50: 19.8 µM

## CSCCC(NS(=O)(=O)c1ccccc1F)C(=O)NNC(=O)c1csc(N2CCOCC2)n1 (centres undefined)
  EC50: 12.5 µM

## CC1=NN(c2nc3ccccc3[nH]2)C(=O)/C1=C/N(C)C
  EC50: 15.3 µM

## Cc1cc(C(=O)NC2CC(C)(C)Cc3c2cnn3-c2ccccc2)n[nH]1 (centres undefined)
  EC50: 53.1 µM

## COc1ccccc1CNC(=O)CN(c1ccc(C)cc1)S(=O)(=O)c1c(C)noc1C
  EC50: 88.3 µM

## CCC(NC(=S)NC1CCCCC1)c1ccc(C(C)C)cc1 (centres undefined)
  EC50: 60 µM

## O=C(Cc1ccc(Cl)c(Cl)c1)NNC(=S)NCC1CCCO1 (centres undefined)
  EC50: 20.7 µM

## C=CCn1c(O)c(N=Nc2ccccc2O)c2ccccc21
  EC50: 0.663 µM

## CN(C)S(=O)(=O)c1cccc(NC(=S)NNC(=O)c2cc3ccccc3cc2O)c1
  EC50: 13.5 µM

## CCOC(=O)c1cnc(-n2nc(C)cc2C)nc1NNc1nc(C)cc(C)n1
  EC50: 25 µM

## O=c1c2ccccc2nc(N/N=C/c2c(O)ccc3ccccc23)n1O
  EC50: 35.2 µM

## CCn1c(C)nc2cc(C(=O)NNC(=S)Nc3ccccc3)ccc21
  EC50: 14.7 µM

## CCc1ccc(/C=N/Nc2ncnc3nc[nH]c23)cc1
  EC50: 13.4 µM

## O=c1cc(-c2ccccc2)[nH]n1-c1nc2ccccc2[nH]1
  EC50: 15.2 µM

## C=CCN1C(=O)C2(NNc3ccccc3O2)c2ccccc21 (centres undefined)
  EC50: 0.718 µM

## CSCCC(NS(=O)(=O)c1ccc(C)cc1)C(=O)NNC(=O)c1csc(N2CCOCC2)n1 (centres undefined)
  EC50: 16.1 µM

## O=C(O)C1OC(Oc2c(-c3ccc(O)c(O)c3)oc3cc(O)cc(O)c3c2=O)C(O)C(O)C1O (centres undefined)
  EC50: > 100 µM (inactive)

## COc1cc(CN2CCC(n3nccc3NC(=O)CCCc3ccccc3)CC2)ccc1F
  EC50: 81.4 µM

## CCC(C)(C)C1CCc2[nH]nc(C(=O)N/N=C(\C)c3ccco3)c2C1 (centres undefined)
  EC50: 59.3 µM

## CCOC(=O)c1c(C)[nH]c(C(=O)N/N=C/c2cc([N+](=O)[O-])ccc2O)c1C
  EC50: 23.2 µM

## CC(NS(=O)(=O)c1ccc(Br)cc1)C(=O)Nc1nc2ccccc2[nH]1 (centres undefined)
  EC50: 14.7 µM

## CCOc1ccccc1CN1CCC(n2nccc2NC(=O)CCc2ccccc2)CC1
  EC50: 84 µM

## O=C(NNC(=S)NC(=O)c1ccccc1[N+](=O)[O-])c1ccccc1O
  EC50: 10.5 µM

## CC(=O)Nc1cccc(C(=O)NNC(=O)c2n[nH]c(=O)c3ccccc23)c1
  EC50: 12.5 µM

## CCOc1ccc(CC(=O)NNC(=S)NC2CCCCC2)cc1OCC
  EC50: 20.4 µM

## CC(NC(=S)NC1CCC(C(C)(C)C)CC1)c1ccccc1 (centres undefined)
  EC50: 41.1 µM

## Cc1cc(C)cc(OCC(=O)NNC(=O)c2cc(C)[nH]n2)c1
  EC50: 18.7 µM
